Read-outs that look alike come from different tables or passages of the source.
Target: T1, mTLR9 (Mus musculus, UniProt Q9EQU3)
T1 construct: Splenocytes isolated from male C57/BL6 mice; from tissue; host or cells: splenocytes from the spleen of male C57BL/6 mice
T1 sequence (Q9EQU3 26-1032): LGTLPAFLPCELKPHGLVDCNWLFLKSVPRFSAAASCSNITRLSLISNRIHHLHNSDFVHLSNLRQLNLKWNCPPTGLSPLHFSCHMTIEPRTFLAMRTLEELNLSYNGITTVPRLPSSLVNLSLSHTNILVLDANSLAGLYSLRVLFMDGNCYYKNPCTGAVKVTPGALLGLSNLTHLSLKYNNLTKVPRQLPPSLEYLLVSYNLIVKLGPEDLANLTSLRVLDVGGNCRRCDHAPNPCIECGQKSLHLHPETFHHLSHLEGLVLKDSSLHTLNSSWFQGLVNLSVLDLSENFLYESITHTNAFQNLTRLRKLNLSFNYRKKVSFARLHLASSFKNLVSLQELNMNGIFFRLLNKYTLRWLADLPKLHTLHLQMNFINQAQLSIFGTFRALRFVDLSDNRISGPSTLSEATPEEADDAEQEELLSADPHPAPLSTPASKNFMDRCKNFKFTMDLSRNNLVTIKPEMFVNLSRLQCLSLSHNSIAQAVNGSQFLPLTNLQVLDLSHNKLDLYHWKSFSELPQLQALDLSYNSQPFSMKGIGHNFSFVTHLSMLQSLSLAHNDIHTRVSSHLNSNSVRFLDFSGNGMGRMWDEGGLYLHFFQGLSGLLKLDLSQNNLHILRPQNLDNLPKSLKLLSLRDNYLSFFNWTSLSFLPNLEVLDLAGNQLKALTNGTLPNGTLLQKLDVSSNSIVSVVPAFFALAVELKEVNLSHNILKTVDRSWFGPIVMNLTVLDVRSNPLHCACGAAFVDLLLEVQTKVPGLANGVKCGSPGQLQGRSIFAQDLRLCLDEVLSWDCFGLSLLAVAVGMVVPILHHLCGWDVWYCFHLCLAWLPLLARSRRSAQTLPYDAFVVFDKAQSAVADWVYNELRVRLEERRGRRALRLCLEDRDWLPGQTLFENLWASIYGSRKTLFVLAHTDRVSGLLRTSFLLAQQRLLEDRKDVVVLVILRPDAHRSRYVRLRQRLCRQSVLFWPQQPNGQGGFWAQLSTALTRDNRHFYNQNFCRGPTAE
Assay: mTLR9 antagonism (IL-6 and TNF-α release assay) in mouse splenocytes, CpG ODN-2006 stimulated
Type: cell-based
Settings: 1 μM, mouse splenocytes
Excerpt: mTLR9 and mTLR7 Antagonism (Cytokine Release Assay) in Mouse Splenocytes
TLR7 ligand R0006 (IDT, 5′-rU*rU*rG*rU*rU*rG*rU*rU*rG*rU*rU*rG*rU*rU*rG*rU*rU*rG*rU*rU-3′ (SEQ ID NO:1)), Liposomal transfection reagent—DOTAP (Roche, Cat. No. 11202375001), TLR9 ligand CpG ODN2006 (Sequence: T*C*G*T*C*G*T*T*T*T*G*T*C*G*T*T*T*T*G*T*C*G*T*T; *=phosphorothioate (SEQ ID NO:2)) DMSO (Sigma, D2650), RPMI Powder (Sigma, R6504), Fetal Bovine Serum (Gibco, 10270), Dulbecco's Phosphate Buffered Saline (Sigma, D1408), 96 well plate (Flat bottom, Costar 3599), ELISA kit for IL-6 (EBioscience, 88-7064-77 and TNFa (EBioscience, 88-7346-88), MACS Buffer (AutoMACS Rinsing Solution (Miltenyl Biotec, 130-091-222)+0.05% BSA), RBC lysis buffer (0.85% NH4Cl), 40 μm cell strainer (BD Falcon, 352340) Method: A. Isolation of Mouse Splenocytes
Mouse spleen was isolated from C57BL6 mouse and stored in 1× chilled PBS buffer until further processed. Spleen was transferred to a sterile petriplate and chopped in to 5-6 pieces in presence of MACS buffer (100 μl) with the help of fresh surgical blade and crushed with flat plunger of a sterile syringe. A uniform suspension was prepared by passing cells through a 40 μm cell strainer. Cells were centrifuged at 450×g for 5 minutes at 4° C., supernatant was discarded and pellet dislodged gently, resuspended in 2 ml of pre-warmed (37° C.) RBC lysis buffer at room temperature with continuous gentle mixing with 1 ml pipette. Lysis buffer was neutralized with 12 ml of chilled MACS buffer and cells were passed through 40 μm cell strainer. Cell suspension was collected in 15 ml MACS buffer and centrifuged at 450×g for 5 minutes at 4° C. Pellet was resuspended in 15 ml MACS buffer and centrifuged at 400×g for 5 minutes. Cells were resuspended in 10 ml of RPMI complete medium and viability was estimated by Trypan blue method.
mTLR9 Antagonism (IL-6 and TNF-α Release Assay):
500 μM stock of CpG ODN-2006 was prepared in sterile, endotoxin-free water. Dilutions of 10× concentrations of NCEs were prepared in incomplete RPMI media, maintaining a final DMSO concentration of 0.3%. NCEs were added in a concentration range of 30 μM to 1 nM in respective wells of assay plate, assay medium containing 0.3% DMSO were added to control wells. 0.2 million splenocytes were added to all the wells and incubated at 37° C. in 5% CO2 incubator for 30 minutes. 1 μg/ml of respective agonist was added to all the wells except those were assigned as negative controls and mixed thoroughly. Incomplete RPMI was added to negative control wells and incubated overnight at 37° C./5% CO2. The plate was centrifuged at 450×g for 5 minutes at room temperature and the supernatant was collected. ELISA was performed as per manufacturer's protocol. S/B Ratio, % Activity and % Inhibition was calculated using MS Excel. IC50 and inhibition curve was generated using Graph Pad Prism.

[1] = IL-6 release, read-out: mTLR9 inhibitory activity (% at 1 μM), IL-6
[2] = TNF-α release, read-out: mTLR9 inhibitory activity (% at 1 μM), TNF-α

Row | Compound | inhibition at 1 µM [1] [%] | inhibition at 1 µM [2] [%]
1 | CC(C)N1CCN(c2ccc(-c3nccc4[nH]c(CN5CCC6(CC5)CC(O)C6)cc34)cc2)CC1 [Example A13, 7-[[4-[4-(4-isopropylpiperazin-1-yl)phenyl]-1H-pyrrolo[3,2-c]pyridin-2-yl]methyl]-7-azaspiro[3.5] nonan-2-ol] | 100 | 91
2 | CN1CCN(c2cccc(-c3nccc4[nH]c(CN5CCOCC5)cc34)c2)CC1 [Example A61, 4-[[4-[3-(4-methylpiperazin-1-yl)phenyl]-1H-pyrrolo[3,2-c]pyridin-2-yl]methyl]morpholine] | 100 | 45
3 | Cc1cc2[nH]c(CN3CCOCC3)cc2c(-c2ccc(N3CCN(C(C)C)CC3)cc2)n1 [Example A4, 4-[[4-[4-[4-isopropylpiperazin-1-yl)phenyl]-6-methyl-1H-pyrrolo[3,2-c]pyridin-2-yl]methyl] morpholine] | 100 | 100
4 | CC(C)N1CCN(c2ccc(-c3nccc4[nH]c(CN5CCOCC5)cc34)cn2)CC1 [Example A53, 4-[[4-[6-(4-isopropylpiperazin-1-yl)-3-pyridyl]-1H-pyrrolo[3,2-c]pyridin-2-yl]methyl]morpholine] | 100 | 80
5 | CCN1CCN(c2ccc(-c3nc(C)cc4[nH]c(CN5CCOCC5)cc34)cc2)CC1 [Example A5, 4-[[4-[4-(4-ethylpiperazin-1-yl)phenyl]-6-methyl-1H-pyrrolo[3,2-c]pyridin-2-yl]methyl] morpholine] | 100 | 91
6 | CC(C)N1CCC(c2ccc(-c3nccc4[nH]c(CN5CCOCC5)cc34)cn2)CC1 [Example A64, 4-[[4-[6-(1-isopropyl-4-piperidyl)-3-pyridyl]-1H-pyrrolo[3,2-c]pyridin-2-yl]methyl]morpholine] | 25 | 0
7 | CC(C)N1CCN(c2ccc(-c3nccc4[nH]c(CN5CCC(O)CC5)cc34)cc2)CC1 [Example A12, 1-[[4-[4-(4-isopropylpiperazin-1-yl)phenyl]-1H-pyrrolo[3,2-c]pyridin-2-yl]methyl] piperidin-4-ol] | 95 | 52
8 | c1cc2[nH]c(CN3CCOCC3)cc2c(-c2ccc(N3CCNCC3)cc2)n1 [Example A42, 4-[[4-(4-(piperazin-1-yl)phenyl)-1H-pyrrolo[3,2-c]pyridin-2-yl]methyl] morpholine] | 84 | 41

Second part, the compound after the results:

Row | inhibition at 1 µM [1] [%] | inhibition at 1 µM [2] [%] | Compound
9 | 100 | 92 | Cc1cc2c(cc(CCN3CCOCC3)n2C)c(-c2ccc(C3CCN(C(C)C)CC3)cc2)n1 [Example B31, 4-[2-[4-[4-(1-isopropyl-4-piperidyl)phenyl]-1,6-dimethyl-pyrrolo[3,2-c]pyridin-2-yl]ethyl]morpholine]
10 | 100 | 100 | Cc1cc2c(cc(CCN3CCOCC3)n2C)c(-c2cccc(N3CCN(C(C)C)CC3)c2)n1 [Example B21, 4-[2-[4-[3-(4-isopropylpiperazin-1-yl)phenyl]-1,6-dimethyl-pyrrolo[3,2-c]pyridin-2-yl]ethyl]morpholine]
11 | 100 | 100 | Cc1cc2c(cc(CCCN3CCOCC3)n2C)c(-c2ccc(N3CCN(C(C)C)CC3)cc2)n1 [Example C6, 4-[3-[4-[4-(4-isopropylpiperazin-1-yl)phenyl]-1,6-dimethyl-pyrrolo[3,2-c]pyridin-2-yl]propyl]morpholine]
12 | 100 | 72 | Cc1cc2c(cc(CCN3CCOCC3)n2C)c(C2CCC(N3CCN(C(C)C)CC3)CC2)n1 (stereo not shown) [Example B27, 4-[2-[4-[4-(4-isopropylpiperazin-1-yl)cyclohexyl]-1,6-dimethyl-pyrrolo[3,2-c]pyridin-2-yl]ethyl]morpholine]
13 | – | 100 | Cc1nc(-c2ccc(N3CCN(C)CC3)cc2)c2cc(CCN3CCOCC3)[nH]c2c1C [Example B7, 4-[2-[6,7-dimethyl-4-[4-(4-methylpiperazin-1-yl)phenyl]-1H-pyrrolo[3,2-c]pyridin-2-yl]ethyl]morpholine]

Reference: US9643967B2, “Pyrrolo[3,2-c]pyridine derivatives as TLR inhibitors” (TAKEDA PHARMACEUTICAL COMPANY LIMITED, priority 2013, dated 2017)
